Columns and labels:
Assay in all cases: relative viability (nuclei count vs DMSO), 5 days (fraction); higher = more cells survive
ChaGo-K-1 = tested on: ChaGo-K-1
Procedure, shortened: (§1)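 For relative viability, nuclei counts in treated wells were divided by those in vehicle wells. Lung cancer cell lines had been pin-tool dosed in 1536-well plates the day after seeding and cultured for 5 days, then fixed and stained in one step (final 0.05% Triton X-100, 1% formaldehyde, 1 ug/ml Hoechst) and imaged at 4×. Doses were one drug alone or a fixed anchor-drug dose plus five library-drug doses (not always all listed) in √10 steps, and values are duplicate-plate medians.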

EKVX = tested on: EKVX
Procedure, shortened: as §1

EMC-BAC-2 = tested on: EMC-BAC-2
Procedure, shortened: as §1

EPLC-272H = tested on: EPLC-272H
Procedure, shortened: as §1

HCC-78 = tested on: HCC-78
Procedure, shortened: as §1

HCC-827 = tested on: HCC-827
Procedure, shortened: as §1

LCLC-103H = tested on: LCLC-103H
Procedure, shortened: as §1

LK-2 = tested on: LK-2
Procedure, shortened: as §1

LU99A = tested on: LU99A
Procedure, shortened: as §1

NCI-H1563 = tested on: NCI-H1563
Procedure, shortened: as §1

NCI-H1666 = tested on: NCI-H1666
Procedure, shortened: as §1

NCI-H1975 = tested on: NCI-H1975
Procedure, shortened: as §1

NCI-H2126 = tested on: NCI-H2126
Procedure, shortened: as §1

NCI-H23 = tested on: NCI-H23
Procedure, shortened: as §1

NCI-H2405 = tested on: NCI-H2405
Procedure, shortened: as §1

NCI-H322M = tested on: NCI-H322M
Procedure, shortened: as §1

PC-14 = tested on: PC-14
Procedure, shortened: as §1

RERF-LC-KJ = tested on: RERF-LC-KJ
Procedure, shortened: as §1

SK-LU-1 = tested on: SK-LU-1
Procedure, shortened: as §1

SW 1573 = tested on: SW 1573
Procedure, shortened: as §1

SMILES: COc1cc2nccc(Oc3ccc(NC(=O)Nc4cc(C)on4)c(Cl)c3)c2cc1OC [Tivozanib] + CS(=O)(=O)N1CCN(Cc2cc3nc(-c4cccc5[nH]ncc45)nc(N4CCOCC4)c3s2)CC1 [Pictilisib] (partner 1 µM)
- relative viability (ChaGo-K-1; first compound 0.005 µM): 0.591
- relative viability (ChaGo-K-1; first compound 0.01581 µM): 0.779
- relative viability (ChaGo-K-1; first compound 0.05 µM): 0.559
- relative viability (ChaGo-K-1; first compound 0.1581 µM): 0.388
- relative viability (ChaGo-K-1; first compound 0.5 µM): 0.504
- relative viability (EKVX; first compound 0.005 µM): 0.392
- relative viability (EKVX; first compound 0.01581 µM): 0.426
- relative viability (EKVX; first compound 0.05 µM): 0.535
- relative viability (EKVX; first compound 0.1581 µM): 0.394
- relative viability (EKVX; first compound 0.5 µM): 0.497
- relative viability (EMC-BAC-2; first compound 0.005 µM): 0.561
- relative viability (EMC-BAC-2; first compound 0.01581 µM): 0.529
- relative viability (EMC-BAC-2; first compound 0.05 µM): 0.554
- relative viability (EMC-BAC-2; first compound 0.1581 µM): 0.389
- relative viability (EMC-BAC-2; first compound 0.5 µM): 0.578
- relative viability (EPLC-272H; first compound 0.005 µM): 0.311
- relative viability (EPLC-272H; first compound 0.01581 µM): 0.31
- relative viability (EPLC-272H; first compound 0.05 µM): 0.326
- relative viability (EPLC-272H; first compound 0.1581 µM): 0.285
- relative viability (EPLC-272H; first compound 0.5 µM): 0.162
- relative viability (HCC-78; first compound 0.005 µM): 0.188
- relative viability (HCC-78; first compound 0.01581 µM): 0.235
- relative viability (HCC-78; first compound 0.05 µM): 0.207
- relative viability (HCC-78; first compound 0.1581 µM): 0.14
- relative viability (HCC-78; first compound 0.5 µM): 0.206
- relative viability (HCC-827; first compound 0.005 µM): 0.864
- relative viability (HCC-827; first compound 0.01581 µM): 0.924
- relative viability (HCC-827; first compound 0.05 µM): 1.01
- relative viability (HCC-827; first compound 0.1581 µM): 1.24
- relative viability (HCC-827; first compound 0.5 µM): 0.982
- relative viability (LCLC-103H; first compound 0.005 µM): 0.58
- relative viability (LCLC-103H; first compound 0.01581 µM): 0.735
- relative viability (LCLC-103H; first compound 0.05 µM): 0.604
- relative viability (LCLC-103H; first compound 0.1581 µM): 0.602
- relative viability (LCLC-103H; first compound 0.5 µM): 0.591
- relative viability (LK-2; first compound 0.005 µM): 0.574
- relative viability (LK-2; first compound 0.01581 µM): 0.472
- relative viability (LK-2; first compound 0.05 µM): 0.6
- relative viability (LK-2; first compound 0.1581 µM): 0.459
- relative viability (LK-2; first compound 0.5 µM): 0.909
- relative viability (LU99A; first compound 0.005 µM): 0.315
- relative viability (LU99A; first compound 0.01581 µM): 0.339
- relative viability (LU99A; first compound 0.05 µM): 0.348
- relative viability (LU99A; first compound 0.5 µM): 0.317
- relative viability (NCI-H1563; first compound 0.005 µM): 0.668
- relative viability (NCI-H1563; first compound 0.01581 µM): 0.729
- relative viability (NCI-H1563; first compound 0.05 µM): 0.622
- relative viability (NCI-H1563; first compound 0.1581 µM): 0.699
- relative viability (NCI-H1563; first compound 0.5 µM): 0.581
- relative viability (NCI-H1666; first compound 0.005 µM): 0.404
- relative viability (NCI-H1666; first compound 0.01581 µM): 0.393
- relative viability (NCI-H1666; first compound 0.05 µM): 0.384
- relative viability (NCI-H1666; first compound 0.1581 µM): 0.389
- relative viability (NCI-H1666; first compound 0.5 µM): 0.478
- relative viability (NCI-H1975; first compound 0.005 µM): 0.278
- relative viability (NCI-H1975; first compound 0.01581 µM): 0.277
- relative viability (NCI-H1975; first compound 0.05 µM): 0.271
- relative viability (NCI-H1975; first compound 0.1581 µM): 0.234
- relative viability (NCI-H1975; first compound 0.5 µM): 0.275
- relative viability (NCI-H2126; first compound 0.005 µM): 0.41
- relative viability (NCI-H2126; first compound 0.01581 µM): 0.533
- relative viability (NCI-H2126; first compound 0.05 µM): 0.489
- relative viability (NCI-H2126; first compound 0.1581 µM): 0.36
- relative viability (NCI-H2126; first compound 0.5 µM): 0.469
- relative viability (NCI-H23; first compound 0.005 µM): 0.443
- relative viability (NCI-H23; first compound 0.01581 µM): 0.471
- relative viability (NCI-H23; first compound 0.05 µM): 0.409
- relative viability (NCI-H23; first compound 0.1581 µM): 0.319
- relative viability (NCI-H23; first compound 0.5 µM): 0.49
- relative viability (NCI-H2405; first compound 0.005 µM): 0.34
- relative viability (NCI-H2405; first compound 0.01581 µM): 0.398
- relative viability (NCI-H2405; first compound 0.05 µM): 0.428
- relative viability (NCI-H2405; first compound 0.1581 µM): 0.312
- relative viability (NCI-H2405; first compound 0.5 µM): 0.342
- relative viability (NCI-H322M; first compound 0.005 µM): 0.484
- relative viability (NCI-H322M; first compound 0.01581 µM): 0.518
- relative viability (NCI-H322M; first compound 0.05 µM): 0.529
- relative viability (NCI-H322M; first compound 0.1581 µM): 0.465
- relative viability (NCI-H322M; first compound 0.5 µM): 0.568
- relative viability (PC-14; first compound 0.005 µM): 0.631
- relative viability (PC-14; first compound 0.01581 µM): 0.604
- relative viability (PC-14; first compound 0.05 µM): 0.693
- relative viability (PC-14; first compound 0.1581 µM): 0.51
- relative viability (PC-14; first compound 0.5 µM): 0.635
- relative viability (RERF-LC-KJ; first compound 0.005 µM): 0.509
- relative viability (RERF-LC-KJ; first compound 0.01581 µM): 0.471
- relative viability (RERF-LC-KJ; first compound 0.05 µM): 0.533
- relative viability (RERF-LC-KJ; first compound 0.1581 µM): 0.356
- relative viability (RERF-LC-KJ; first compound 0.5 µM): 0.586
- relative viability (SK-LU-1; first compound 0.005 µM): 0.618
- relative viability (SK-LU-1; first compound 0.01581 µM): 0.465
- relative viability (SK-LU-1; first compound 0.05 µM): 0.483
- relative viability (SK-LU-1; first compound 0.1581 µM): 0.336
- relative viability (SK-LU-1; first compound 0.5 µM): 0.55
- relative viability (SW 1573; first compound 0.005 µM): 0.448
- relative viability (SW 1573; first compound 0.01581 µM): 0.479
- relative viability (SW 1573; first compound 0.05 µM): 0.505
- relative viability (SW 1573; first compound 0.1581 µM): 0.346
- relative viability (SW 1573; first compound 0.5 µM): 0.406
